{
  "source": "patent US20220347206A1",
  "about": "(NPO Petrovax Pharm, LLC, priority 2021, published 2022)",
  "key": {"immature DC": {"tested_on": "immature DC", "settings": "in vitro; cited from earlier work"}, "COVID-19 [1]": {"tested_on": "COVID-19", "settings": "human, in vivo"}, "natural killer cell": {"tested_on": "natural killer cell", "settings": "in vitro; cited from earlier work"}, "leukocytes": {"tested_on": "leukocytes", "settings": "after penetrating leukocytes by endocytosis; cited from earlier work"}, "T-cell": {"tested_on": "T-cell", "settings": "in vitro; cited from earlier work"}, "COVID-19 [2]": {"tested_on": "COVID-19", "settings": "human, in vivo", "remark": "listed apart in the source"}},
  "note": "Where “and” joins values, the source holds several entries; their conditions need not be identical. Identical values can stand only once.",
  "data": [
    {"substance": "Azoximer bromide [AZB]", "values": [
      {"measurement": "Immature DC expansion", "setting": "immature DC", "result": "increase immature DC expansion"},
      {"measurement": "Absolute number of ARI cases, control group versus main (AZB) group", "setting": "COVID-19 [1]", "result": "more than 10 times higher"},
      {"measurement": "Afflicted by ARI, number", "setting": "COVID-19 [1]", "result": 32},
      {"measurement": "Afflicted by ARI, percent", "setting": "COVID-19 [1]", "result": 13.1, "unit": "%"},
      {"measurement": "Afflicted by acute respiratory illness (ARI), percent", "setting": "COVID-19 [1]", "result": 0.3, "unit": "%"},
      {"measurement": "Cases of ARI", "setting": "COVID-19 [1]", "result": 3, "unit": "cases"},
      {"measurement": "Cases of COVID-19", "setting": "COVID-19 [1]", "result": 1, "unit": "case"},
      {"measurement": "Confirmed diagnosis of COVID-19 (PCR or antibody test), number", "setting": "COVID-19 [1]", "result": 2},
      {"measurement": "Confirmed diagnosis of COVID-19 (PCR or antibody test), percent", "setting": "COVID-19 [1]", "result": 0.3, "unit": "%"},
      {"measurement": "Confirmed diagnosis of COVID-19 (PCR test data), number", "setting": "COVID-19 [1]", "result": 6},
      {"measurement": "Confirmed diagnosis of COVID-19 (PCR test data), percent", "setting": "COVID-19 [1]", "result": 2.4, "unit": "%"},
      {"measurement": "Number of ARI cases, control group versus main (AZB) group", "setting": "COVID-19 [1]", "result": "more than 30 times"},
      {"measurement": "Participants who developed pneumonia, percent (reported ARI cases)", "setting": "COVID-19 [1]", "result": 0, "unit": "%"},
      {"measurement": "Natural killer cell degranulation", "setting": "natural killer cell", "result": "increase natural killer cell degranulation"},
      {"measurement": "Intracellular hydrogen peroxide", "setting": "leukocytes", "result": "significant dose-dependent increases"},
      {"measurement": "T-cell proliferation", "setting": "T-cell", "result": "induce T-cell proliferation"},
      {"measurement": "Body temperature normalisation (≤37° C.)", "setting": "COVID-19 [2]", "result": "all patients had a normal body temperature"},
      {"measurement": "Day 15 OS score 1 (not hospitalized, no limitations on activities), %", "setting": "COVID-19 [2]", "result": "1.3% and 1 (1.3) %"},
      {"measurement": "Day 15 OS score 2 (not hospitalized, limitation on activities), %", "setting": "COVID-19 [2]", "result": "35.1% and 27 (35.1) %"},
      {"measurement": "Day 15 OS score 3 (hospitalized, not requiring supplemental oxygen), %", "setting": "COVID-19 [2]", "result": "45.5% and 35 (45.5) %"},
      {"measurement": "Day 15 OS score 4 (hospitalized, requiring supplemental oxygen), %", "setting": "COVID-19 [2]", "result": "9 (11.7) %"},
      {"measurement": "Day 15 OS score 5 (hospitalized, on noninvasive ventilation or high flow oxygen devices), %", "setting": "COVID-19 [2]", "result": "3.9% and 3 (3.9) %"},
      {"measurement": "Day 15 OS score 6 (hospitalized, on invasive mechanical ventilation or extracorporeal membrane oxygenation), %", "setting": "COVID-19 [2]", "result": "2.6% and 2 (2.6) %"},
      {"measurement": "Day 15 OS score 7 (death), %", "setting": "COVID-19 [2]", "result": "0 (0.0) %"},
      {"measurement": "Day 15 Ordinal Scale score, mean", "setting": "COVID-19 [2]", "result": 2.90},
      {"measurement": "Day 28 Mortality: alive, %", "setting": "COVID-19 [2]", "result": "77 (100.0) %"},
      {"measurement": "Day 28 Mortality: dead, %", "setting": "COVID-19 [2]", "result": "0 (0.0) %"},
      {"measurement": "Duration of hospitalization, mean", "setting": "COVID-19 [2]", "result": "19.32 days and 19.13^g days and 19.32^h days"},
      {"measurement": "Duration of hospitalization, median", "setting": "COVID-19 [2]", "result": "19.0 days and 19.0^c days"},
      {"measurement": "Improvement probability (NEWS)", "setting": "COVID-19 [2]", "result": "> 80", "unit": "%"},
      {"measurement": "Mean (SD) NEWS", "setting": "COVID-19 [2]", "result": "1.08 (1.18)"},
      {"measurement": "Mean C-reactive protein (CRP)", "setting": "COVID-19 [2]", "result": 13.21, "unit": "mg/L"},
      {"measurement": "Mean oxygen saturation", "setting": "COVID-19 [2]", "result": "96.90% and 96.98%"},
      {"measurement": "Mean time to an OS score improving to ≤2", "setting": "COVID-19 [2]", "result": 15.9, "unit": "days"},
      {"measurement": "Mean time to vanishing signs of pneumonia", "setting": "COVID-19 [2]", "result": 18.45, "unit": "days"},
      {"measurement": "Median C-reactive protein (CRP)", "setting": "COVID-19 [2]", "result": 8.5, "unit": "mg/L"},
      {"measurement": "Number of patients requiring respiratory support (OS=4-6)", "setting": "COVID-19 [2]", "result": 14, "unit": "patients"},
      {"measurement": "Patients with an OS score of 2 or 3, percent", "setting": "COVID-19 [2]", "result": 93.5, "unit": "%"},
      {"measurement": "Pneumonia presence, number of patients", "setting": "COVID-19 [2]", "result": 18, "unit": "patients"},
      {"measurement": "Pneumonia presence, percent of patients", "setting": "COVID-19 [2]", "result": 23.4, "unit": "%"},
      {"measurement": "Probability of achieving a normal body temperature", "setting": "COVID-19 [2]", "result": 90, "unit": "%"},
      {"measurement": "Respiratory support requirement", "setting": "COVID-19 [2]", "result": "No patients required respiratory support"},
      {"measurement": "SpO2 value of the one patient below the reference range", "setting": "COVID-19 [2]", "result": 94, "unit": "%"}
    ]}
  ]
}
